From publication PMC13286573, “Exploration of precision coregulator TR-FRET identifies diverse signatures for LXR ligands relevant to discovery of nonlipogenic ABCA1 inducers” (eLife, 2026)
Entries after “also recorded” stand apart in the source; their conditions may differ.

Key:
[1] = system: sterol response element (SRE); assay: SRE-luc reporter assay in HepG2 cells; type: cell-based, human
In short: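 HepG2 cells stably carrying an SRE (LDLR) promoter–NlucP reporter, grown in medium with charcoal-stripped FBS. Treated with compounds for 24 hr at 37 °C, then lysed and nanoluciferase luminescence read.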

[2] = system: ABCA1; assay: ABCA1-luc reporter assay in CCF-STTG1 astrocytoma cells; type: cell-based, human; settings: normalized to T0
From the text: Astrocytoma CCF-STTG1 cells, stably transfected with an ABCA1-promoter linked to a luciferase response element, provide a model for ABCA1 induction in astrocytes ([Ben Aissa et al., 2021]). […] Apparent inverse agonist activity in cell-based assays can result from ‘true’ inverse agonist recruitment of corepressors or from antagonist activity towards endogenous sterol LXR agonists. Although we use serum-stripped media, antagonism of endogenous LXR agonists cannot be ruled out.
Low passage CCF-STTG1 cells (20,000 cells/well) were seeded in 96-well plates in media containing charcoal-stripped FBS and incubated at 37 °C and 5% CO2 for 24 hr prior to a 24 hr treatment. All compounds were dissolved in DMSO, and final DMSO concentrations never exceeded 1%. After a 24 hr incubation period, add a volume of ONE-GLOEX Reagent that is equal to the volume of culture medium in each well and incubate for 3–5 min on the shaker. The luminescent activity of compounds ([…], 10-fold dilution) was examined using the ONE-GLOEX assay (Promega). […] The assays were performed in duplicates for each concentration, and the EC50 values were determined from non-linear regression analysis of the dose-response curve generated in GraphPad Prism 9.

[3] = system: HepG2 cells; assay: Cell viability in HepG2 cells under SRE-luc conditions; type: cell-based, human; settings: conditions of SRE-luc measurements
From the text: Figure 5. Lipogenic response of HepG2 cells to treatment with liver X receptor (LXR) ligands. […] See Figure 3—figure supplement 1 for biological replicates. […] See Figure 5—figure supplement 1 for full concentration-response curves. Figure 5—figure supplement 1. Response of HepG2 cells to treatment with liver X receptor (LXR) ligands. (A–B) Lipogenic response of HepG2 cells to treatment with liver X receptor (LXR) ligands showing full concentration-response curves for biphenyl compounds shown in Figure 5E–F. (C) Cell viability in HepG2 cells under identical conditions to those used to obtain sterol response element (SRE)-luc data. [drawing 5]

[4] = system: LXR; assay: Corepressor (NCOR2, SMRT2) binding to LXR, CRT, statements across isoforms; type: biochemical; settings: monoplex CRT, absence of coactivator
[5] = system: mouse model of non-alcoholic steatohepatitis (NASH); set-up: method as in Griffett et al., 2015; Griffett and Burris, 2016; settings: ref Griffett et al., 2015; Griffett and Burris, 2016; cited from earlier work
[6] = molecular target: T1, LXRα (Homo sapiens, UniProt Q13133); assay: NCOR2 corepressor binding to LXRα, CRT; type: biochemical; set-up: The CRT selectivity assay incorporates GST-tagged LXR-LBD; purchased Thermo Fisher Scientific PV4657; settings: read-out: NCOR2α, relative % activity at 1 μM
T1 sequence (Q13133 209-447 limits assumed): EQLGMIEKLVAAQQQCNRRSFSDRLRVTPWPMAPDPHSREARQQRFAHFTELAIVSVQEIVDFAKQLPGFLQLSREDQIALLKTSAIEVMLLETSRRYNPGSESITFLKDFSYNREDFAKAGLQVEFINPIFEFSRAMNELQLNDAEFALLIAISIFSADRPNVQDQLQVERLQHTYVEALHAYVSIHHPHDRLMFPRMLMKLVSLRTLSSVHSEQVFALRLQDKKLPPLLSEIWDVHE

[7] = molecular target: T2, LXRβ (Homo sapiens, UniProt P55055); assay: NCOR2 corepressor binding to LXRβ, CRT; type: biochemical; set-up: The CRT selectivity assay incorporates GST-tagged LXR-LBD; purchased Thermo Fisher Scientific PV4660; settings: read-out: NCOR2β, relative % activity at 1 μM
T2 sequence (P55055 222-460 limits assumed): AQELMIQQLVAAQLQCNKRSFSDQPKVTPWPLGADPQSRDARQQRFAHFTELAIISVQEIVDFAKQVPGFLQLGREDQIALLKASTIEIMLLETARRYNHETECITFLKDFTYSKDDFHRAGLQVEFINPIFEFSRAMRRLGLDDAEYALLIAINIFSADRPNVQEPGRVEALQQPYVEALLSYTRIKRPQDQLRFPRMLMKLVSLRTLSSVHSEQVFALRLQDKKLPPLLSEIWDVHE

[8] = molecular target: T1, LXRα; assay: SMRT2 corepressor binding to LXRα, CRT; type: biochemical; set-up: The CRT selectivity assay incorporates GST-tagged LXR-LBD; purchased Thermo Fisher Scientific PV4657; settings: read-out: SMRT2α, relative % activity at 1 μM
[9] = molecular target: T1, LXRα; settings: in the absence of agonist
[10] = ligand 1 µM, interpolated from concentration-response, normalized, heat map Figure 9A

activity at 1 µM [6, 10] | activity at 1 µM [8, 10] | Structure (SMILES) | SRE activation response/phenotype in HepG2 [1] | ABCA1 induction response/phenotype in CCF cells [2] | HepG2 cell viability/cytotoxicity [3] | Corepressor (NCOR2, SMRT2) displacement or stabilization, across LXR isoforms [4] | Hepatic effects in NASH mouse model [5] | activity at 1 µM [7] | Coactivator recruitment to LXRα [9] | activity at 1 µM [6] | activity at 1 µM [8]
97.7% | 92.9% | Cc1cc(C)c(S(=O)(=O)N(Cc2ccc(-c3cccc(S(C)(=O)=O)c3)cc2)Cc2ccc(C(F)(F)F)o2)c(C)c1 [GSK2033] | neutral or antagonist response | inverse agonist activity in cells | no loss of cell viability | little or no ability to displace NCOR2 and SMRT2 corepressors from LXR; also recorded: does not stabilize a conformation that disrupts corepressor binding to LXRα | no beneficial effects on hepatic steatosis | 57.7% |  |  | 
 |  | CCOC(=O)c1ccc(CN(Cc2ccc(-c3cccc(S(C)(=O)=O)c3)cc2)S(=O)(=O)c2c(C)cc(C)cc2C)o1 [SR9238] | lowered SRE activation below baseline; also recorded: neutral or antagonist response; also recorded: inverse agonist at <3 µM concentration | inverse agonist activity in cells | no loss of cell viability | strong agonist responses | significantly reduced hepatic inflammation and fibrosis | 21.9% | unable to recruit coactivators to LXRα | 64.5% | 64.5%
